Experimental data from article PMC7849180 (Frontiers in Pharmacology, 2020).
Where two headings read alike, the source gives them in different places.

How the values were obtained:
[1] = Plasma pharmacokinetics, single ascending dose (SAD); assay type: in vivo, human; conditions: for Cmax, geometric mean (CV%) / Tmax, median (min–max): fasting
Protocol: In SAD part, volunteers were designed into eight SAD cohorts (25, 50, 100, 150, 200, 250, 300 and 400 mg). Among these cohorts, 25 mg was bisected by the 50 mg specification under good manufacturing practices (GMP) condition and provided the certificate of analysis. […] Jaktinib or placebo was administrated after an overnight fast.
(§1) For MAD cohorts, blood samples were collected at 0, 0.25, 0.5, 1, 1.5, 2, 3, 4, 5, 6, 8 and 12 h on day 1; 0 h on day 2, 3, 4, 6 and 7; 0, 0.25, 0.5, 1, 1.5, 2, 3, 4, 5, 6, 8, 12, 24, 36 and 48 h on day 10. In food effect cohort, blood samples were collected at 0, 0.25, 0.5, 1, 1.5, 2, 3, 4, 5, 6, 8, 12, 24, 36, 48, 72, 96 and 120 h in period one of group A; 0, 0.25, 0.5, 1, 1.5, 2, 3, 4, 5, 6, 8, 12, 24, 36 and 48 h in period two of group A and the two periods of group B. Blood samples were centrifuged at 3,000 rpm for 10 min at 2–8 °C and stored at -80 °C until liquid chromatography-mass spectrophotometry (LC-MS/MS) analysis. Urine and feces samples were collected in period one of group A of food effect cohort with the intervals 0, 0–6, 6–12, 12–24, 24–48, 48–72, 72–96, 96–120 and 0–120 h, respectively. […]

[2] = Food effect on plasma pharmacokinetics, 200 mg crossover; assay type: in vivo, human; conditions: for AUC0-t, geometric mean / AUC0-∞, geometric mean / Cmax, geometric mean / median Tmax: 200 mg
Protocol: as §1
Statistical analysis was performed using SAS software, version 9.4 (SAS Institute Inc., United States). Descriptive statistics were used to summarize continuous variables as cases, means with standard deviations, medians, maximum and minimum. For categorical variables, frequencies and percentages were used. A regression power model, relating log-transformed Cmax and AUC parameters to log-transformed dose, was used to investigate dose proportionality. Food effect pharmacokinetic parameters were analyzed using the mixed effect model with period, sequence and treatment as fixed effects and subjects as the random effect. Logarithmic transformation of Cmax, AUC0-∞ and AUClast were performed to calculate the 90% confidence intervals (CIs) of the geometric mean ratio (GMR) between fasting and fed administration. If the calculated 90% CI values fall entirely within the range of 0.80–1.25, it is indicative of no significant food effect.

[3] = test system: cells transformed by selected oncogenic mutants of tyrosine kinases; test: Inhibition of transformed cells; assay type: cell-based
[4] = Metabolic stability in liver microsomes; assay type: in vitro ADME, dog
Protocol: (§2) The metabolic stability of ZG0128 (the dihydrochloride monohydrate of ZG0163) was evaluated using human, monkey, dog, rat, and mouse liver microsomes as the in vitro models. The percentages of residues for ZG0128 after incubating in human, monkey, dog, rat, and mouse liver microsomes for 60 minutes was 55.5%, 63.1%, 67.1%, 80.3%, and 79.0%, respectively. The CLint values of in vivo clearance were calculated to be 24.1, 21.6, 33.4, 10.7, 26.0 mL/min/kg, respectively. Thus its was speculated that ZG0128 was a medium clearance drug in humans, monkeys, and mice, a high clearance drug in dogs, and a low clearance drug in rats.
(§3) Using UPLC-UV/Q-TOF MS, the potential metabolites of ZG0128 in various liver microsomes (human, monkey, dog, rat and mouse liver microsomes) incubation systems were identified and the metabolic pathways of ZG0128 were speculated. The main metabolite of ZG0128 in above five types of liver microsomes were primary alcohol metabolite formed by morpholine ring-opening (M3). […]

JAK2 signaling pathway = test: JAK2 signaling in NSG mice injected with HCD-57-JAK2V617F cells; assay type: in vivo; conditions: single 200 mg/kg intraperitoneally, 4 h
Protocol: Suzhou Zelgen Biopharmaceuticals Co., Ltd. Jaktinib Hydrochloride Tablets Chemical Drug Class 1 New Drug […]
cells at a concentration of 1 μM. […]
effectively affect the primary cells harboring the JAK2V617F mutation in patients with […]
In Vivo Pharmacodynamic Study of ZG0128 in Mouse Model of Myeloproliferative Neoplasm
Primary myelofibrosis (PMF) is characterized by the formation of bone marrow fibrous tissues (scar-like) caused by the abnormal proliferation of three types of cells (platelets, white blood cells, and red blood cells). At present, there is still no particularly effective treatment for these diseases. JAKV617F transgenic mice and JAK2V617F bone marrow transplanted mice can develop the pathological characteristics of myeloproliferative neoplasm, which can be used to effectively evaluate the efficacy of drugs used in the treatment of myeloproliferative neoplasms.
HCD-57-JAK2V617F cells were intravenously injected into NSG mice. Three weeks later, the mice were injected intraperitoneally with a single dose of 200 mg/kg of compound ZG0128, and euthanized 4 h after drug administration. The results of […]
nucleated cells in spleen were HCD-57-JAK2V617F transplanted cells. Western blot […]
the phosphorylation of downstream major signaling proteins of JAK2, i.e., ERK1/2, […]
inhibit the JAK2 signaling pathway in vivo. […]

[5] = Metabolic stability in liver microsomes; assay type: in vitro ADME, monkey
Protocol: as §2, §3

myelofibrosis = test: Myelofibrosis in JAK2V617F bone marrow transplanted mice; assay type: in vivo; conditions: 100 mg/kg, 5 weeks
[6] = 25–400 mg, linear mixed effects model

Jaktinib
slope (90% CI) for ln AUC0-∞ vs dose [1, 6]: 1.15 (0.96–1.34) | slope (90% CI) for ln Cmax vs dose [1, 6]: 1.00 (0.86–1.15) | Cmax, geometric mean (CV%) ([1]; single 25 mg dose): 34.50 (51.6) ng/ml | Tmax, median (min–max) ([1]; single 25 mg dose): 2.00 (1.00–4.00) h | Cmax, geometric mean (CV%) ([1]; single 50 mg dose): 77.56 (72.8) ng/ml | Tmax, median (min–max) ([1]; single 50 mg dose): 3.00 (0.50–5.00) h | Cmax, geometric mean (CV%) ([1]; single 100 mg dose): 183.48 (33.3) ng/ml | Tmax, median (min–max) ([1]; single 100 mg dose): 1.25 (0.50–3.00) h | Cmax, geometric mean (CV%) ([1]; single 150 mg dose): 297.18 (36.6) ng/ml | Tmax, median (min–max) ([1]; single 150 mg dose): 2.50 (1.50–4.00) h | Cmax, geometric mean (CV%) ([1]; single 200 mg dose): 354.52 (44.6) ng/ml | Tmax, median (min–max) ([1]; single 200 mg dose): 2.50 (1.00–3.00) h | Cmax, geometric mean (CV%) ([1]; single 250 mg dose): 404.20 (36.9) ng/ml | Tmax, median (min–max) ([1]; single 250 mg dose): 2.00 (1.00–4.00) h | Cmax, geometric mean (CV%) ([1]; single 300 mg dose): 510.54 (35.4) ng/ml | Tmax, median (min–max) ([1]; single 300 mg dose): 3.00 (0.50–5.00) h | Cmax, geometric mean (CV%) ([1]; single 400 mg dose): 579.35 (42.6) ng/ml | Tmax, median (min–max) ([1]; single 400 mg dose): 3.50 (2.00–5.00) h | CL/F, range across cohorts ([1]; single dose 25–400 mg): 76.212 to 150.190 L/h | Vz/F, range across cohorts ([1]; single dose 25–400 mg): 533.561 to 1033.554 L | median Tmax, range across cohorts ([1]; single dose 25–400 mg jaktinib): 1.25 to 3.5 h | t1/2, range across cohorts ([1]; single dose 25–400 mg jaktinib): 2.952 to 9.040 h | Cmax, geometric mean (CV%) ([2]; 200 mg fasted): 237.98 (69.0) ng/ml | Tmax, median (min–max) ([2]; 200 mg fasted): 2.00 (0.50–5.00) h | Cmax, geometric mean (CV%) ([2]; 200 mg fed): 542.35 (32.1) ng/ml | Tmax, median (min–max) ([2]; 200 mg fed): 4.00 (3.00–5.00) h | AUC0-t, geometric mean ([2]; fasted (n = 12)): 1569.48 ng·h/mL | AUC0-∞, geometric mean ([2]; fasted (n = 12)): 1616.35 ng·h/mL | Cmax, geometric mean ([2]; fasted (n = 12)): 237.98 ng/mL | median Tmax ([2]; fasted state): 2 h | AUC0-t, geometric mean ([2]; fed (n = 12)): 4174.9 ng·h/mL | AUC0-∞, geometric mean ([2]; fed (n = 12)): 4207.38 ng·h/mL | Cmax, geometric mean ([2]; fed (n = 12)): 542.35 ng/mL | median Tmax ([2]; fed state): 4 h | AUC0-t, geometric mean ratio ([2]; fed vs fasted): 2.66 | AUC0-∞, geometric mean ratio ([2]; fed vs fasted): 2.60 | Cmax, geometric mean ratio ([2]; fed vs fasted): 2.28 | IC50 [3]: 100 nM

Cl.Cl.O.[2H]C1([2H])COCC([2H])([2H])N1c1ccc(Nc2nccc(-c3ccc(C(=O)NCC#N)cc3)n2)cc1 [ZG0128, Jaktinib Dihydrochloride Monohydrate]
CLint of in vivo clearance [4]: 33.4 mL/min/kg | percentage of residue after 60 minutes [4]: 67.1% | phosphorylation of ERK1/2, Akt and STAT5 in splenocytes (JAK2 signaling pathway): significantly inhibited | CLint of in vivo clearance [5]: 21.6 mL/min/kg | percentage of residue after 60 minutes [5]: 63.1% | progression of myelofibrosis (myelofibrosis): significantly and effectively inhibited the progression of myelofibrosis
